Measurements published in patent publication US7045528B2, “Benzofused heterozryl amide derivatives of thienopyridines useful as therapeutic agents, pharmaceutical compositions including the same, and methods for their use” (Agouron Pharmaceuticals, Inc., priority 2002, dated 2006).

Legend:
[1] = molecular target: T1, unphosphorylated VEGF-R2Δ50 (FLVK) (Homo sapiens, UniProt P35968, DEL940-989/E990V); test: VEGF-R2 coupled spectrophotometric assay, unphosphorylated VEGF-R2Δ50 (FLVK); type: biochemical; conditions: unphosphorylated VEGF-R2Δ50; for inhibition at 0.05 µM: 50 nM compound, read-out: FLVK (% inh @ 50 nM)
T1 construct: VEGF-R2Δ50 contains residues 806–939 and 990–1171; made in house; host or cells: baculovirus/insect cell system
T1 sequence (P35968 with tags, fused parts or gaps DEL940-989/E990V limits assumed): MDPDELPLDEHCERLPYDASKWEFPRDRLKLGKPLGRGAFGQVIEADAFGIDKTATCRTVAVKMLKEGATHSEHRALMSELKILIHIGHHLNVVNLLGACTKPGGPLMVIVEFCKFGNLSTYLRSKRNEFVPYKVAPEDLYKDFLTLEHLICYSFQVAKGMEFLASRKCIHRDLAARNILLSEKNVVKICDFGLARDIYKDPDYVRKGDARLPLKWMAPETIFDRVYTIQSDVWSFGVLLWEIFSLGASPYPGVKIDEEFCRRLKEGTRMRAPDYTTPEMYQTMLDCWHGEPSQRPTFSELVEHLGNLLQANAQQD
Summary of the method: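 Baculovirus-expressed human VEGF-R2Δ50 (kinase insert partly deleted, E990V), unphosphorylated form; ADP production coupled via PK/LDH to NADH oxidation, read at 340 nm. 20 mM poly(E4Y1), 3 mM ATP, 60 mM MgCl2, 2 mM MnCl2, 200 mM HEPES pH 7.5; 5–40 nM enzyme. Ki from Morrison tight-binding fit.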

[2] = test system: human umbilical vein endothelial cells (HUVEC); test: HUVEC+VEGF proliferation assay; type: cell-based; conditions: Homo sapiens, HUVEC; VEGF 6 ng/mL, 72 h, MTT
Summary of the method: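 Exponentially growing passage 3–4 HUVEC were starved 24 h in F12K + 1% FBS, given compound (0.1% final DMSO) 1 h before 6 ng/mL final VEGF, then cultured 72 h. Proliferation was read as MTT dye reduction (4 h exposure), absorbance at 595 nm.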

KDR (VEGFR2) = molecular target: T2, KDR (VEGFR2) (Homo sapiens, UniProt P35968); test: KDR (VEGFR2) phosphorylation in PAE-KDR cells assay; type: cell-based; conditions: PAE cells overexpressing human KDR, VEGF stimulated; read-out: PAE KDR autophos IC50 (nM) AVG
T2 construct: expressed in transfected cells; host or cells: porcine aorta endothelial (PAE)-KDR cells
T2 sequence (P35968 20-1356): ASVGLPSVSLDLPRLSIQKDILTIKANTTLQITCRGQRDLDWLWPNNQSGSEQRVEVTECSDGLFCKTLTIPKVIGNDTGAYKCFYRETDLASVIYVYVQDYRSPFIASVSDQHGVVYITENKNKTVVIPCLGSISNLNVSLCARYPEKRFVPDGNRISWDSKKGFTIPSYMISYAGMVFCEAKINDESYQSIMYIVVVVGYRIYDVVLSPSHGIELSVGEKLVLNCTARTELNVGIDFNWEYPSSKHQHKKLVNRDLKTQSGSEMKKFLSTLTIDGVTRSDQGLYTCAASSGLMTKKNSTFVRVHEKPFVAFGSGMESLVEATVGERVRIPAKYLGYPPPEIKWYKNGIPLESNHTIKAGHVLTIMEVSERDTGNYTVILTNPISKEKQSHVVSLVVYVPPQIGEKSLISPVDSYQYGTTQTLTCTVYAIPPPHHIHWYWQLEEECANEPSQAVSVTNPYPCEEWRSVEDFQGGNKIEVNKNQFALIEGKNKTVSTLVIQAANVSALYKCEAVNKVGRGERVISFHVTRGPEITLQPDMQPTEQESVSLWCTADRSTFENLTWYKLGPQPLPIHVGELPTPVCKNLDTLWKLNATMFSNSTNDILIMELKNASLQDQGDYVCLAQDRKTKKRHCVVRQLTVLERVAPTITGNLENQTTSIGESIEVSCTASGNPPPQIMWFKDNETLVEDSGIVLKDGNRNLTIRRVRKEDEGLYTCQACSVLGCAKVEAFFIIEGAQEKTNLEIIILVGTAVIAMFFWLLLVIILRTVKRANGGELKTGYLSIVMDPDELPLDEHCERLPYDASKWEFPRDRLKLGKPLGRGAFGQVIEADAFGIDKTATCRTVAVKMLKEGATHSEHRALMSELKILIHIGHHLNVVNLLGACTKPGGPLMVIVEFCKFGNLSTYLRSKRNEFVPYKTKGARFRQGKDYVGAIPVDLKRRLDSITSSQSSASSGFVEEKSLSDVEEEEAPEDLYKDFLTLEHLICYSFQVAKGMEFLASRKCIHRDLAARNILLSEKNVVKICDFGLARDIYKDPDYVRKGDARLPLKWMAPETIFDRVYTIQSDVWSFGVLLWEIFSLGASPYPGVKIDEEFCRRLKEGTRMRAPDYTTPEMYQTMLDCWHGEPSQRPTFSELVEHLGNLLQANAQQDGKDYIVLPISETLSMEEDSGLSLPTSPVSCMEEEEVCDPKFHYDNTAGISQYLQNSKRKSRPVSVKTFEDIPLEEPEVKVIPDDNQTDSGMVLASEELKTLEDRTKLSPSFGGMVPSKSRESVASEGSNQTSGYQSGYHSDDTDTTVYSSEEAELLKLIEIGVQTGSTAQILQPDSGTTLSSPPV
Experimental: KDR (VEGFR2) Phosphorylation in PAE-KDR Cells Assay
This assay determines the ability of a test compound to inhibit the autophosphorylation of KDR in porcine aorta endothelial (PAE)-KDR cells. PAE cells that overexpress human KDR were used in this assay. The cells were cultured in Ham's F12 media supplemented with 10% fetal bovine serum (FBS) and 400 ug/mL G418. Thirty thousands cells were seeded into each well of a 96-well plate in 75 μL of growth media and allowed to attach for 6 hours at 37° C. Cells were then exposed to the starvation media (Ham's F12 media supplemented with 0.1% FBS) for 16 hours. After the starvation period was over, 10 μL of test agent in 5% DMSO in starvation media were added to the test wells and 10 μL of the vehicle (5% DMSO in starvation media) were added into the control wells. The final DMSO concentration in each well was 0.5%. Plates were incubated at 37° C. for 1 hour and the cells were then stimulated with 500 ng/ml VEGF (commercially available from R & D System) in the presence of 2 mM Na3VO4 for 8 minutes. The cells were washed once with 1 mm Na3VO4 in HBSS and lysed by adding 50 μL per well of lysis buffer. One hundred μL of dilution buffer were then added to each well and the diluted cell lysate was transferred to a 96-well goat ant-rabbit coated plate (commercially available from Pierce) which was pre-coated with Rabbit anti Human Anti-flk-1 C-20 antibody (commercially available from Santa Cruz). The plates were incubated at room temperature for 2 hours and washed seven times with 1% Tween 20 in PBS. HRP-PY20 (commercially available from Santa Cruz) was diluted and added to the plate for a 30-minute incubation. Plates were then washed again and TMB peroxidase substrate (commercially available from Kirkegaard & Perry) was added for a 10-minute incubation. One hundred μL of 0.09 N H2SO4 was added to each well of the 96-well plates to stop the reaction. Phosphorylation status was assessed by spectrophotometer reading at 450 nm. IC50 values were calculated by curve fitting using a four-parameter analysis.

Huvec = test: bFGF Huvec proliferation; type: cell-based, human; conditions: Homo sapiens, HUVEC

Compound | inhibition at 0.05 µM [1] [%] | Ki [1] [nM] | IC50 (KDR (VEGFR2)) [nM] | IC50 [2] [nM] | IC50 (Huvec) [nM]
CNC(=O)c1c(C)sc2cc(Oc3ccnc4cc(-c5nccn5C)sc34)ccc12 [Example 1, 2-methyl-6-(2-[1-methyl-1H-imidazol-2-yl]thieno[3,2-b]pyridin-7-yloxy)benzo[b]thiophene-3-carboxylic acid methylamide] | 92 | 1.02 | 0.31 | 0.68 | 122
CNC(=O)c1c(C)sc2cc(Oc3ccnc4cc(C(=O)N5CC[C@@H](OC)C5)sc34)ccc12 [Example 4, 6-(2-[(R)-3-methoxypyrrolidine-1-carbonyl]thieno[3,2-b]pyridin-7-yloxy)-2-methylbenzo[b]thiophene-3-carboxylic acid methylamide] | 88 | 2.58 | 0.47 | 0.404 | 
CNC(=O)c1c(C)n(C)c2cc(Oc3ccnc4cc(C(=O)N5CC[C@@H](OC)C5)sc34)ccc12 [Example 18, 1,2-dimethyl-6-(2-[3-methoxy-pyrrolidine-1-carbonyl]thieno[3,2-b]pyridin-7-yloxy)-1H-indole-3-carboxylic acid methylamide] | 78 | 2.37 | 0.62 | 0.64 | 1000
CNC(=O)c1c(C)sc2cc(Oc3ccnc4cc(C(=O)N5CCC[C@H]5COC)sc34)ccc12 [Example 2, 6-(2-[(S)-2-(methoxymethyl)pyrrolidine-1-carbonyl]thieno[3,2-b]pyridin-7-yloxy)-2-methylbenzo[b]thiophene-3-carboxylic acid methylamide] | 75 | 4.14 | 1.8 | 2.3 | 3330
CNC(=O)c1c(C)n(C)c2cc(Oc3ccnc4cc(-c5nccn5C)sc34)ccc12 [Example 17, 1,2-dimethyl-6-(2-[1-methyl-1H-imidazol-2-yl]thieno[3,2-b]pyridin-7-yloxy)-1H-indole-3-carboxylic acid methylamide] | 77 | 2.77 | 0.47 | 1.2 | 847
CNC(=O)c1c(C)n(C)c2cc(Oc3ccnc4cc(C(=O)N5CC[C@@H](O)C5)sc34)ccc12 [Example 19, 1,2-dimethyl-6-(2-[3-hydroxy-pyrrolidine-1-carbonyl]thieno[3,2-b]pyridin-7-yloxy)-1H-indole-3-carboxylic acid methylamide] | 75 | 2.63 | 1.7 | 2.7 | 10000
CCCNC(=O)c1c(C)n(C)c2cc(Oc3ccnc4cc(-c5nccn5C)sc34)ccc12 [Example 61, 1,2-Dimethyl-6-[2-(1-methyl-1H-imidazol-2-yl)thieno[3,2-b]pyridin-7-yloxy]-1H-indole-3-carboxylic acid propylamide] | 89 |  | 0.4 | 0.605 | 4000

Second part, led by results:

inhibition at 0.05 µM [1] [%] | Ki [1] [nM] | IC50 (KDR (VEGFR2)) [nM] | Compound | IC50 [2] [nM] | IC50 (Huvec) [nM]
100 | 0.314 | 0.14 | CNC(=O)c1c(C)oc2cc(Oc3ccnc4cc(C(=O)N5CC[C@@H](OC)C5)sc34)ccc12 [Example 12, 6-(2-[3-methoxypyrrolidine-1-carbonyl]thieno[3,2-b]pyridin-7-yloxy)-2-methylbenzofuran-3-carboxylic acid methylamide] | 0.26 | 20
91 | 0.57 | 0.24 | CCCCNC(=O)c1c(C)n(C)c2cc(Oc3ccnc4cc(-c5nccs5)sc34)ccc12 [Example 62, 1,2-Dimethyl-6-(2-thiazol-2-yl-thieno[3,2-b]pyridin-7-yloxy)-1H-indole-3-carboxylic acid butylamide] | 2.15 | 619
59 | 0.811 | 0.9 | CNC(=O)c1c(C)sc2cc(Oc3ccnc4cc(C(=O)N5CCC[C@H]5CO)sc34)ccc12 [Example 3] | 0.442 | 942
97 | 0.322 | 0.21 | CNC(=O)c1c(C)oc2cc(Oc3ccnc4cc(-c5nccn5C)sc34)ccc12 [Example 13] | 0.082 | 27
94 | 0.721 |  | CNC(=O)c1c(C)sc2cc(Oc3ccnc4cc(C(=O)N5CC[C@@H](O)C5)sc34)ccc12 [Example 6, 6-(2-[(R)-3-hydroxypyrrolidine-1-carbonyl]thieno[3,2-b]pyridin-7-yloxy)-2-methylbenzo[b]thiophene-3-carboxylic acid methylamide] | 1.2 | 145
99 | 0.082 | 0.217 | Cc1c(C(=O)NC2CC2)c2ccc(Oc3ccnc4cc(-c5nccn5C)sc34)cc2n1C [Example 20, 1,2-Dimethyl-6-[2-(1-methyl-1H-imidazol-2-yl)-thieno[3,2-b]pyridin-7-yloxy]-1H-indole-3-carboxylic acid cyclopropylamide] | 0.19 | 1900
